According to patent publication US6994283B1, “Method for pulverizing to fine powder” (Nippon Shinyaku Co., Ltd., priority 1999, dated 2006):

Experiments:
[1] = Determination of particle diameter (ultracentrifugal automatic particle size distribution analyzer, silicone oil dispersion); type: physicochemical
Protocol: Determination of Particle Diameter
Twenty (20) mg each of the pre-pulverized present compound and the pulverizates of the compound as obtained in Examples 1 and 2 and Comparative Example 1 was taken in a test tube and 5 ml of silicone oil (product of Shin-Etsu Chemical Co.) was added. The mixture was stirred with a bench-top mixer for 20 seconds and further dispersed with a bench-top supersonic washer (UT-51N, product of Sharp Corporation) for 5 minutes. Then, the particle size distribution was determined with an ultracentrifugal automatic particle size distribution analyzer (CAPA-700, manufactured by Horiba, Ltd.).

[2] = Confirmation of crystalline state by powder X-ray diffraction; type: physicochemical; conditions: after a pulverization time of 60 minutes, mill of the closed-circuit pulverizing type
Protocol: Confirmation of Crystalline State
Using each of the unpulverized present compound and the pulverizates of the same compound as obtained in Examples 1 and 2 and Comparative Example 1, the powder X-ray diffraction pattern was recorded with a powder x-ray diffraction analyzer (RAD-2B, manufactured by Rigaku Denki).
It will be apparent from the drawings that the pulverizates as micronized with a mill of the open-circuit pulverizing type retained the crystalline form, showing X-ray diffraction peaks.

[3] = Administration experiment (in vivo): oral capsule, plasma concentration of the metabolite by HPLC; conditions: 4 male crab-eating monkeys, capsule of Example 1 pulverizate versus capsule of unpulverized compound
Description: Administration Experiment (in vivo)
A capsule prepared using the unpulverized present compound and a capsule prepared using the pulverizate obtained in Example 1 (the present pulverizate) according to the physical blending formula shown in Table 2 were respectively administered orally to 4 crab-eating monkeys (male, aged 6˜9 years). The blood was serially sampled and the plasma concentration of the metabolite of the present compound [(E)-4-[2-[2-[N-(4-methoxybenzenesulfonyl)amino]phenyl]-ethenyl]pyridine 1-oxide] was determined by HPLC.
The abscissa represents time (hrs) and the ordinate represents the plasma concentration (μg/ml) of the metabolite.

[4] = before pulverization (bulk powder)
[5] = after 120 min. pulverization, planetary ball-mill

Compound: COc1ccc(S(=O)(=O)N(C(C)=O)c2ccccc2/C=C/c2cc[n+]([O-])cc2)cc1 [Example 2, (E)-4-[2-[2-[N-acetyl-N-(4-methoxybenzenesulfonyl)amino]phenyl]ethenyl]-pyridine 1-oxide]
- Fraction of particles ≧30 μm ([1]; after pulverization): 6.8%
- Fraction of particles ≧50 μm ([1]; after pulverization): 0%
- Mean particle diameter ([1]; after pulverization): 15.2 ± 6.8 μm
- Fraction of particles ≧30 μm [1, 4]: 26.6%
- Fraction of particles ≧50 μm [1, 4]: 12.8%
- Mean particle diameter [1, 4]: 24.2 ± 31.2 μm

Compound: COc1ccc(S(=O)(=O)N(C(C)=O)c2ccccc2/C=C/c2cc[n+]([O-])cc2)cc1 [Comparative Example, (E)-4-[2-[2-[N-acetyl-N-(4-methoxybenzenesulfonyl)amino]phenyl]ethenyl]-pyridine 1-oxide]
- Crystalline state (X-ray diffraction peaks) [2]: changed to a non-crystalline compound showing no X-ray diffraction peaks
- Mean particle diameter ([1]; after 30 min. pulverization, planetary ball-mill): 15.1 μm
- Mean particle diameter ([1]; after 60 min. pulverization, planetary ball-mill): 12.4 μm
- Fraction of particles ≧30 μm [1, 5]: 0%
- Mean particle diameter [1, 5]: 10.7 ± 4.5 μm
- Fraction of particles ≧30 μm [1, 4]: 35.5%
- Fraction of particles ≧50 μm [1, 4]: 20.4%
- Mean particle diameter [1, 4]: 25.9 ± 43.3 μm

Compound: COc1ccc(S(=O)(=O)N(C(C)=O)c2ccccc2/C=C/c2cc[n+]([O-])cc2)cc1 [Example 1, (E)-4-[2-[2-[N-acetyl-N-(4-methoxybenzenesulfonyl)amino]phenyl]ethenyl]-pyridine 1-oxide]
- Fraction of particles ≧30 μm ([1]; after pulverization): 0%
- Mean particle diameter ([1]; after pulverization): 9.7 ± 4.3 μm
- Fraction of particles ≧30 μm [1, 4]: 35.5%
- Fraction of particles ≧50 μm [1, 4]: 20.4%
- Mean particle diameter [1, 4]: 25.9 ± 43.3 μm

Compound: COc1ccc(S(=O)(=O)N(C(C)=O)c2ccccc2/C=C/c2cc[n+]([O-])cc2)cc1 [the present compound, (E)-4-[2-[2-[N-acetyl-N-(4-methoxybenzenesulfonyl)amino]phenyl]ethenyl]-pyridine 1-oxide]
- Plasma concentration (metabolite determined by HPLC) [3]: significantly increased
